Data set [1] concerns Human Umbilical Endothelial Cells (HUVEC). Nature of the data set: EC migration (scratch assay and boyden chamber assay). Format: cell-based. As to the method: (§1) The effect of the non-aromatizable androgen dihydrotestosterone was assessed on three key angiogenic processes: endothelial cell (EC) migration, EC proliferation and EC tubulogenesis. Cells were treated with 0, 4, 40 or 400 nM dihydrotestosterone (DHT, a potent androgen) with and without the androgen-receptor antagonist hydroxyflutamide (HF).
EC migration was assessed via a scratch assay and boyden chamber assay. Human Umbilical Endothelial Cells (HUVEC) monolayers were grown in the presence of varying doses of DHT±Hydroxyflutamide (HF), and either scratched or placed on top of permeable membranes. EC migration across the culture surface or through the membranes was assessed at 24 h and 6 h respectively via light and fluorescence microscopy respectively.

The subject of data set [2] is HUVECs. Nature of the data set: EC proliferation (direct counting of cell numbers and MTS Assay). The format is cell-based, Human. How it is done:
as §1
EC proliferation was assessed using two methods: direct counting of cell numbers and the MTS Assay. HUVECs were seeded at a density of 1×10^4 cells/ml (12 well plates for counting, 96 well plates for MTS assay) in endothelial growth media in the presence of varying doses DHT±Hydroxyflutamide (HF). After 48 h, cells were either harvested from 12 well plates and counted or incubated with MTS reagent in the 96 well plates with absorbance measured subsequently at 490 nm measured.

The subject of data set [3] is HUVECs. The data set is described as follows: EC tubulogenesis (co-culture assay of fibroblasts and ECs). Format: cell-based, Human. Particulars: for EC tubulogenesis vs. 100% control value: donor cells; for tubule formation vs. 100% control value: male EC, chronic exposure (72 h). How it is done:
The effect of the non-aromatizable androgen dihydrotestosterone was assessed on three key angiogenic processes: endothelial cell (EC) migration, EC proliferation and EC tubulogenesis.
Co-cultures were grown in the presence of DHT±Hydroxyflutamide (HF). After 72 h, co-cultures were assessed using immunohistochemistry for EC specific markers and image analysis software.

For data set [4], the system named is Male C57B16/J mice. Particulars: castrate+DHT male mice, after 7 days; control 0.39±0.03. The source says:
(§2) Male C57B16/J mice were either castrated or sham-castrated after reaching sexual maturity (6 weeks). After a period of 10 days, 50% of both castrated and sham-castrated mice received a 1 cm subcutaneous silastic implant containing DHT.

The test system of data set [5] is Male C57B16/J mice. Particulars: castrate+DHT.
Source text: as §2
Mononuclear cells were harvested from the spleens and bone marrow of all animals and assessed via cell culture and flow cytometry. Cells were and stained with fluorescein isothiocyanate-lectin and/or 1,1(-dioctadecyl-3,3,3(,3(-tetramethylindocarbocyanine (DiI)-labelled, acetylated low-density lipoprotein (Vasa M, et al. Number and migratory activity of circulating endothelial progenitor cells inversely correlate with risk factors for coronary artery disease. Circ Res. 2001; 89:e1-e7).

For data set [6] the following is noted: intramuscular injection; cited from earlier work.

The structures appear in SMILES notation. Where two headings read alike, the source gives them in different places.

Take `C[C@]12CCC(=O)C[C@@H]1CC[C@@H]1[C@@H]2CC[C@]2(C)[C@@H](O)CC[C@@H]12` [DHT, 5α-dihydrotestosterone]: the “EC migration vs. 100% control value” in data set [1] (donor cells, DHT 4 nM) amounted to 90±5%; in data set [1] (donor cells, DHT 40 nM), 96±5%; in data set [1] (donor cells, DHT 400 nM), 93±8%; in data set [1] (male EC, DHT 4 nM, after 24 h) it was 138±7%; in data set [1] (male EC, DHT 40 nM, after 24 h), 280±23%; in data set [1] (male EC, DHT 400 nM, after 24 h), 306±32%. The “EC proliferation vs. 100% control value” is given as 92±5% with HUVECs [2] (donor cells, DHT 4 nM); 92±3% in the data set on HUVECs [2] (donor cells, DHT 40 nM); 89±6% with HUVECs [2] (donor cells, DHT 400 nM); 112±8% with HUVECs [2] (male EC, DHT 4 nM, after 48 h); 118±5% in the data set on HUVECs [2] (male EC, DHT 40 nM, after 48 h); 127±4% in the data set with HUVECs [2] (male EC, DHT 400 nM, after 48 h). In addition, the “EC tubulogenesis vs. 100% control value” was found to be 92±3% in the data set with HUVECs [3] (DHT 4 nM), 90±3% in the data set on HUVECs [3] (DHT 40 nM) and 92±3% in the data set with HUVECs [3] (DHT 400 nM). The “tubule formation vs. 100% control value” with HUVECs [3] (DHT 4 nM) stood at 115±7%; with HUVECs [3] (DHT 40 nM) it was 137±5%; with HUVECs [3] (DHT 400 nM), 157±6%. For the same compound, the “Laser Doppler Perfusion Index (LDPI) ischemic/non-ischemic ratio” value in the data set with Male C57B16/J mice [4] came out at 0.6±0.06. For the same compound, the spleen angiogenic cells with Male C57B16/J mice [5] (absence of ischaemia, control 15.4±1, castrated 10.3±0.9) is 10±0.9 Angiogenic cells/×200 field; in the data set on Male C57B16/J mice [5] (presence of ischaemia, control 22±1.7, castrated 16±0.8) it was 26±1.3 Angiogenic cells/×200 field. For the same compound, the “bone marrow angiogenic cells” value with Male C57B16/J mice [5] (presence of ischaemia, control 60±2.4, castrate 26±1.7) is listed as 36±3 Angiogenic cells/×200 field.

For `CCCCCCC(=O)O[C@H]1CC[C@H]2[C@@H]3CCC4=CC(=O)CC[C@]4(C)[C@H]3CC[C@]12C` [Testosterone enanthate], in data set [6], the “time to peak serum testosterone levels after administration” value is 24 h.

Source of the values: US9572817B2, “Use of androgens for vascular regeneration and endothelial repair” (THE HEART RESEARCH INSTITUTE LTD., priority 2008, dated 2017).
